Measurements published in PMC8128204, “Development of 3-methyl/3-(morpholinomethyl)benzofuran derivatives as novel antitumor agents towards non-small cell lung cancer cells” (Journal of Enzyme Inhibition and Medicinal Chemistry, 2021).
Converted amounts (≈) assume the structure as drawn.

Legend:
NCI-H23 cells [1] = assay: MTT anti-proliferative assay, NCI-H23; format: cell-based, human; settings: mean ± SD of three experiments
Experimental: (§1) The antiproliferative activity of the synthesised derivatives of the 3-methylbenzofuran series (4a–d, 6a–c, 8a–c and 11) and the 3-(morpholinomethyl)benzofuran series (15a–c, 16a–b, 17a–b and 18) was evaluated against non-small cell lung carcinoma (NSCLC) A549 and NCI-H23 cell lines, following the procedures of the MTT assay. […] 1. Anti-proliferative action toward human […] cell lines […]
(§2) The two examined human non-small cell lung carcinoma cell lines (A549 and NCI-H23) have been obtained from American Type Culture Collection (ATCC). The cells were maintained in Dulbecco's modified Eagle's medium (DMEM) supplemented with 10% heat inactivated fetal calf serum (GIBCO), penicillin (100 U/ml) and streptomycin (100 µg/ml) at 37 °C in humidified atmosphere containing 5% CO2. […]
(§3) flask in 5 ml of culture medium. The anti-proliferative activity of the tested 3-methylbenzofurans (4a-d, 6a-c, 8a-c and 11) and 3-(morpholinomethyl)benzofurans (15a-c, 16a-b, 17a-b and 18) measured in vitro using the MTT assay. Briefly, cells were plated out in 96-well microtiter plate (0.5X10^4 cells/well) and incubated for 24 h before treatment with the tested benzofurans to allow cells to attach to the bottom of the well of the plate. Tested benzofuranswere were dissolved in DMSO at 1 mg/ml immediately before use and diluted to the appropriate volume just before addition to the cell culture. […]
(§4) added to the cells (three wells were prepared for each individual dose). Cells were incubated with […]
(§5) At the end of exposure, MTT […]
(§6) solution in PBS (5 mg/ml) was then added to all well including no cell blank and left to incubate for 90 min. The formation of formazan crystals were visually confirmed using phase contract microscopy. DMSO (100 µl/well) was added to dissolve the formazan crystals with shaking for 10 min after which the absorbance was read at 590 nm against no cell blanks on a microplate reader.
(§7) The relation between percent of surviving fraction and log drug concentration is plotted to get the survival curve for each cell line.

A549 cells = assay: MTT anti-proliferative assay, A549; format: cell-based, human; settings: mean ± SD of three experiments
Experimental: as §1, §2, §3, §4, §5, §6, §7

WI-38 cell line = assay: Cytotoxic activity against non-tumorigenic WI-38 cell line; format: cell-based, human
From the text: Antiproliferative agents are designed to inhibit the cellular growth of tumour cells selectively, while sparing the normal cells.

NCI-H23 cells [2] = assay: Cell cycle analysis (PI flow cytometry), NCI-H23; format: cell-based, human; settings: NCI-H23, 24 h at IC50 concentration
Experimental: (§8) Lung cancer A549 cells were treated with benzofuran 4b, whereas NCI-H23 cells were treated […]
twice with ice-cold phosphate buffered saline (PBS). Subsequently, the treated cells were collected by centrifugation, fixed in ice-cold 70% (v/v) ethanol, washed with PBS, re-suspended with 100 μg/mL RNase, stained with 40 μg/mL PI, and analyzed by flow cytometry using FACS Calibur (Becton Dickinson, BD, Franklin Lakes, NJ, USA). The cell cycle distributions were calculated using CellQuest software 5.1 (Becton Dickinson). […]

NCI-H23 cells [3] = assay: Annexin V-FITC/PI apoptosis assay, NCI-H23; format: cell-based, human; settings: NCI-H23, at IC50 concentration; control 2.09%
Experimental: The apoptotic effect of the three benzofurans (4b, 15a and 16a) was evaluated using Annexin VFITC/PI (AV/PI) dual staining assay to validate if their observed cytotoxic effect is due to non-specific necrosis or physiological apoptosis. […] Moreover, the apoptotic effects of 3-(morpholinomethyl)benzofuran derivatives 15a and 16a were evaluated in NCI-H23 cancer cell line.
as §8
twice with ice-cold phosphate buffered saline (PBS). Subsequently, the treated cells were collected by centrifugation, fixed in ice-cold 70% (v/v) ethanol, washed with PBS, re-suspended with 100 μg/mL RNase, stained with 40 μg/mL PI, and analyzed by flow cytometry using FACS Calibur (Becton Dickinson, BD, Franklin Lakes, NJ, USA). The cell cycle distributions were calculated using CellQuest software 5.1 (Becton Dickinson).
3. Annexin V-FITC Apoptosis Assay […]
Cells were then rinsed in binding buffer and resuspended in 150 μL of binding buffer with the addition of 1 μL of DAPI (1 μg/μL in PBS). Cells were then analyzed using the flow cytometer BD FACS Canto II and the results were interpreted with FlowJo7.6.4 software (Tree Star, Ashland, 4. VEGFR-2 Kinase Inhibitory Activity […]

[4] = tested on: M. tuberculosis ATCC 27294; assay: Microplate Alamar Blue Assay, anti-tubercular activity; format: cell-based; settings: Mycobacterium tuberculosis, ATCC27294, 168 h, MABA, 7 days, read-out: MIC
VEGFR-2 = VEGFR-2 (Homo sapiens, UniProt P35968); assay: VEGFR-2 kinase inhibitory assay (VEGFR2(KDR) Kinase Assay Kit)
Sequence of VEGFR-2 (P35968 20-1356): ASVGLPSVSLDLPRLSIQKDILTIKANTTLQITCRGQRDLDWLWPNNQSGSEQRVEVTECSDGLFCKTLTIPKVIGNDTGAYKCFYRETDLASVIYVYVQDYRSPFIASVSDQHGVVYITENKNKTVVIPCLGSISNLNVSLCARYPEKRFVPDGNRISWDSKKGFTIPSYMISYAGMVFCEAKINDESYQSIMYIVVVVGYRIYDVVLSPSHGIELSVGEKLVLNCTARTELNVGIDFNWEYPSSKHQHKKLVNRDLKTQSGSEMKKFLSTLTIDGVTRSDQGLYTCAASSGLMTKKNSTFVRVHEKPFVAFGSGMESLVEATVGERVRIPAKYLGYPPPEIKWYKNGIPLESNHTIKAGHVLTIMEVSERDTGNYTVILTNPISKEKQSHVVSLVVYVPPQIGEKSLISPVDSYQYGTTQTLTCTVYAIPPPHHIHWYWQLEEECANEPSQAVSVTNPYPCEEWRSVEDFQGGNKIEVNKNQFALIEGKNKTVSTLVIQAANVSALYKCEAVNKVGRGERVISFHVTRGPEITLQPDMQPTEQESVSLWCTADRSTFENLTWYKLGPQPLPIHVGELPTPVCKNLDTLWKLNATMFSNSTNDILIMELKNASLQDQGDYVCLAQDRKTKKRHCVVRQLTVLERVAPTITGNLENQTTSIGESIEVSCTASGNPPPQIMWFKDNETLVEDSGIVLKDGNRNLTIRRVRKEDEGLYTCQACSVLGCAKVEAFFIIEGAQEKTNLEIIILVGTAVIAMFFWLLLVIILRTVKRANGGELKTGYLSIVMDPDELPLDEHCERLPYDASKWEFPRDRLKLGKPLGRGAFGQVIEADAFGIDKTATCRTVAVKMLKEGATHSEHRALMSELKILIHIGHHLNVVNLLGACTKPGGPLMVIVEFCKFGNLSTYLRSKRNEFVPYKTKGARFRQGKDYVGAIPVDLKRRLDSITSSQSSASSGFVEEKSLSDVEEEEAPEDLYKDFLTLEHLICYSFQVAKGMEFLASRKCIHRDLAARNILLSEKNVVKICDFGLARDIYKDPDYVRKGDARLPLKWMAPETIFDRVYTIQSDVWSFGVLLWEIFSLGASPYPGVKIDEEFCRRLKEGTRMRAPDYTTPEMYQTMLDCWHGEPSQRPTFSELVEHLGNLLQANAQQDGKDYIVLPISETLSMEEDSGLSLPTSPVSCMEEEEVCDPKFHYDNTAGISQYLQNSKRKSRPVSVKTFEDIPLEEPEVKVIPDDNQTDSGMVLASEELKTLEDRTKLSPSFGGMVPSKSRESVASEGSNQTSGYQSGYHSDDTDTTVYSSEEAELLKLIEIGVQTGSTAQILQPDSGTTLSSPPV
From the text: CA, USA), according to the manufacturer’s instructions.

SMILES	IC50 (NCI-H23 cells [1]; Homo sapiens, NCI-H23, 48 h) [µM]	melting point [°C]	IC50 (A549 cells; Homo sapiens, A549, 48 h) [µM]	also measured
Cc1c(C(=O)NNC(=S)Nc2cccc(C(F)(F)F)c2)oc2ccccc12 [Compound 4c, 2-(3-Methylbenzofuran-2-carbonyl)-N-(3-(trifluoromethyl)phenyl)hydrazine-1-carbothioamide]	24.36 ± 0.12	170 to 172	–	–
COc1ccc(C=NNC(=O)c2oc3ccccc3c2C)cc1 [Compound 8b, N'-(4-Methoxybenzylidene)-3-methylbenzofuran-2-carbohydrazide]	6.15 ± 0.31	236 to 240	9.2 ± 0.5	–
COc1ccc(NC(=O)NNC(=O)c2oc3ccccc3c2C)cc1 [Compound 6b, N-(4-Methoxyphenyl)-2-(3-methylbenzofuran-2-carbonyl)hydrazine-1-carboxamide]	9.24 ± 0.46	236 to 240	12.5 ± 0.68	–
COc1ccc(NC(=O)NNC(=O)c2oc3ccccc3c2CN2CCOCC2)cc1 [Compound 16b, N-(4-Methoxyphenyl)-2-(3-(morpholinomethyl)benzofuran-2-carbonyl)hydrazine-1-carboxamide]	5.09 ± 0.25	242 to 244	18.9 ± 1.03	–
COc1cccc(NC(=S)NNC(=O)c2oc3ccccc3c2C)c1 [Compound 4a, N-(3-Methoxyphenyl)-2–(3-methylbenzofuran-2-carbonyl)hydrazine-1-carbothioamide]	34.2 ± 1.71	172 to 174	10.1 ± 0.55	–
COc1cccc(NC(=O)NNC(=O)c2oc3ccccc3c2CN2CCOCC2)c1 [Compound 16a, N-(3-Methoxyphenyl)-2-(3-(morpholinomethyl)benzofuran-2-carbonyl)hydrazine-1-carboxamide]	0.49 ± 0.02	–	1.52	IC50 (A549 cells; 48 h): 1.5 ± 0.08 µM; Mean tumour selectivity (WI-38 cell line; S.I. WI-38/A549 and NCI-H23): 12.9; IC50 (WI-38 cell line; non-tumorigenic human lung WI-38 cell line): 12.9 ± 0.78 µM; S phase, fold vs control (NCI-H23 cells [2]; attenuated): 0.51 fold; G2/M phase cell population, fold vs control (NCI-H23 cells [2]; augmentation): 6.90 fold; sub-G1 phase cell population, fold vs control (NCI-H23 cells [2]; augmentation): 12.54 fold; G0–G1 phase, fold vs control (NCI-H23 cells [2]; reduced): 0.47 fold; total apoptosis (NCI-H23 cells [3]): 36.81%; MIC [4]: 125 µg/mL (≈ 294 µM); IC50 (VEGFR-2): 0.0454 ± 0.0027 µM
NNC(=O)c1ccncc1 [INH, Isoniazid, reference compound]	–	–	–	MIC [4]: 0.24 µg/mL (≈ 1.75 µM)
O=C(NN=Cc1ccccc1)c1oc2ccccc2c1CN1CCOCC1 [Compound 17a, N'-Benzylidene-3-(morpholinomethyl)benzofuran-2-carbohydrazide]	23 ± 1.15	174	6.01 ± 0.03	–
COc1cccc(C=NNC(=O)c2oc3ccccc3c2C)c1 [Compound 8a, N'-(3-Methoxybenzylidene)-3-methylbenzofuran-2-carbohydrazide]	14.9 ± 0.74	242 to 244	44.1 ± 2.41	–
COc1ccc(C=NNC(=O)c2oc3ccccc3c2CN2CCOCC2)cc1 [Compound 17b, N'-(4-Methoxybenzylidene)-3-(morpholinomethyl)benzofuran-2-carbohydrazide]	3.04 ± 0.15	200	10.8 ± 0.59	–
COc1ccc(C(C)=NNC(=O)c2oc3ccccc3c2C)cc1 [Compound 8c, N'-(1-(4-Methoxyphenyl)ethylidene)-3-methylbenzofuran-2-carbohydrazide]	14 ± 0.7	160	16.4 ± 0.89	–
Cc1c(C(=O)NNC(=O)Nc2ccc(Cl)c(C(F)(F)F)c2)oc2ccccc12 [Compound 6c, N-(4-Chloro-3-(trifluoromethyl)phenyl)-2-(3-methylbenzofuran-2-carbonyl)hydrazine-1-carboxamide]	24.5 ± 1.23	240 to 242	47 ± 2.57	–
Cc1c(C(=O)NN=C2CCCc3ccccc32)oc2ccccc12 [Compound 11, N'-(3,4-Dihydronaphthalen-1(2H)-ylidene)-3-methylbenzofuran-2-carbohydrazide]	12.1 ± 0.6	180 to 182	30.2 ± 1.65	–
O=C(NNC(=S)Nc1cccc(C(F)(F)F)c1)c1oc2ccccc2c1CN1CCOCC1 [Compound 15c, 2-(3-(Morpholinomethyl)benzofuran-2-carbonyl)-N-(3-(trifluoromethyl)phenyl)hydrazine-1-carbothioamide]	2.21	210 to 212	6.3 ± 0.34	IC50 (NCI-H23 cells [1]; 48 h): 2.22 ± 0.11 µM
COc1cccc(NC(=O)NNC(=O)c2oc3ccccc3c2C)c1 [Compound 6a, N-(3-Methoxyphenyl)-2-(3-methylbenzofuran-2-carbonyl)hydrazine-1-carboxamide]	56.7 ± 2.83	162 to 164	15.1 ± 0.83	–
O=C(NN=C1CCCc2ccccc21)c1oc2ccccc2c1CN1CCOCC1 [Compound 18, N'-(3,4-Dihydronaphthalen-1(2H)-ylidene)-3-(morpholinomethyl)benzofuran-2-carbohydrazide]	29.8 ± 1.49	200	3.7 ± 0.2	–
COc1ccc(NC(=S)NNC(=O)c2oc3ccccc3c2CN2CCOCC2)cc1 [Compound 15b, N-(4-Methoxyphenyl)-2-(3-(morpholinomethyl)benzofuran-2-carbonyl)hydrazine-1-carbothioamide]	68.9 ± 3.44	198 to 200	5.7 ± 0.31	–
Cc1c(C(=O)NNC(=S)Nc2ccc(F)cc2)oc2ccccc12 [Compound 4d, N-(4-Fluorophenyl)-2-(3-methylbenzofuran-2-carbonyl)hydrazine-1-carbothioamide]	67.2 ± 3.36	206 to 210	12.8 ± 0.7	–
